Measurements published in patent US9061981B2, “Diphenyl substituted cyclohexane derivatives, useful as modulators of the estrogen receptors beta” (Acadia Pharmaceuticals Inc., priority 2011, dated 2015).
Values joined by “and” are separate entries in the source; they are usually repeats but may differ in a detail not shown here. Equal values may be shown once.

Assays:
[1] = Microsomal bioavailability (Table 2); assay type: in vitro ADME; conditions: read-out: Microsomal bioavailability F (%)
ERα [2] = target: T1, ERα (Homo sapiens, UniProt P03372); assay: Competitive 3H-estradiol binding assay, ERα; conditions: 1 nM 3H-estradiol, HEK293T cytosolic extract; read-out: Binding ERα pKi (converted)
T1 sequence (P03372 1-595): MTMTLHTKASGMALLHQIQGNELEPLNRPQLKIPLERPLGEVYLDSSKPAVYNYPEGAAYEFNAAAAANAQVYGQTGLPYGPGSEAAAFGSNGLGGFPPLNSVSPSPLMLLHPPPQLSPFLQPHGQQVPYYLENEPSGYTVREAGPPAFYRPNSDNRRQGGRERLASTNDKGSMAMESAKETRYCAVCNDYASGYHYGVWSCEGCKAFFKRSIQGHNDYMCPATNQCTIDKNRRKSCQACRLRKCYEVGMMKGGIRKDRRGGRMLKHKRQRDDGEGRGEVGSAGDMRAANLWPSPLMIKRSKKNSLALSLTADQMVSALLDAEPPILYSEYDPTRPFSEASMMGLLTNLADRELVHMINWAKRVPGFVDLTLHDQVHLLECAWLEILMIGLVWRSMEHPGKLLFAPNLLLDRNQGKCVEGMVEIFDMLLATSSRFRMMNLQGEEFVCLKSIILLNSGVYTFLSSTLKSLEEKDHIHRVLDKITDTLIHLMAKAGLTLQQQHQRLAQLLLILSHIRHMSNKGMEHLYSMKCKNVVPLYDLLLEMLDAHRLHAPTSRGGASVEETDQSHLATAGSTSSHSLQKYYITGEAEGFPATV
Method: (§1) HEK293T cells were transiently transfected for 48 hours with expression vectors encoding ERα or ERβ, before being serum starved for 4-6 hours. Cells were then harvested by scraping in ice-cold PBS and subsequently lysed using a cold buffer containing 10 mM Tris pH 7.4, 1 mM EDTA, 1 mM DTT before being subjected to polytron twice for 10 seconds. Cytosolic extracts were isolated by centrifugation at 15000 g for 30 minutes at 4° C. Competitive binding of the test compounds or the estradiol control was performed on 20 μL extract by overnight incubation at 4° C. in a total volume of 100 μL containing 1 nM ^3H-estradiol (Perkin Elmer, Boston, Mass.). The bound fraction was separated from the unbound one by the addition of 100 μL of Dextran coated charcoal, incubated for 10 minutes and subsequent centrifugation at 1000 rpm for 10 minutes. Samples (100 μL per sample) were then analyzed by liquid scintillation. Data was then analyzed using the curve fitting software GraphPad Prism.

[3] = Metabolic stability in liver microsomes, human; assay type: in vitro ADME; conditions: low value = metabolically stable
Method: (§2) Also the metabolic stability in liver microsomes was tested for some compounds.

[4] = Metabolic stability in liver microsomes, rat; assay type: in vitro ADME; conditions: low value = metabolically stable
Method: as §2

ERβ [5] = target: T2, ERβ (Homo sapiens, UniProt Q92731); assay: R-SAT functional assay, ERβ; assay type: cell-based; set-up: expressed in transfected cells; host or cells: transient transfection
T2 sequence (Q92731 whole entry, species assumed): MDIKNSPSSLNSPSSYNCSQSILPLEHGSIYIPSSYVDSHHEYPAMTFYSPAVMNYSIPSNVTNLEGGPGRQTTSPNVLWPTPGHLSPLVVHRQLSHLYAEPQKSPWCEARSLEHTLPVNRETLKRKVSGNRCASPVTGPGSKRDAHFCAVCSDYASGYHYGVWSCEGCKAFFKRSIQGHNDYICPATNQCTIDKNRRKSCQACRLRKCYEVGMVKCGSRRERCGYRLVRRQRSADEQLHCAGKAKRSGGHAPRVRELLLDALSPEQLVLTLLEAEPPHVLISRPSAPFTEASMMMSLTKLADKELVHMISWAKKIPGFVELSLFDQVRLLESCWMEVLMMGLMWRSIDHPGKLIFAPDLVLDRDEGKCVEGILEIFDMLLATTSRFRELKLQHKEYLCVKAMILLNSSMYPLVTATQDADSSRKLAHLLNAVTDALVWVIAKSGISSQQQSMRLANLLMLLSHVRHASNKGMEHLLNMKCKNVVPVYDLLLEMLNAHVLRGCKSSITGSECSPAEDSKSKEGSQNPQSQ
Excerpt: (§3) R-SAT® (Receptor Selection and Amplification Technology) is a cell-based functional assay that allows one to monitor receptor-dependent proliferative responses and has been described elsewhere. […] This process is achieved by partial cellular transformation via loss of contact inhibition and growth factor dependency. Monitoring is achieved by transfecting the cells with a β-galactosidase reporter gene vector whose expression is under a constitutively active promoter. Briefly, NIH-3T3 fibroblasts were plated overnight in 96-wells plates in DMEM 10% calf serum (Hyclone) and grown to 60-70% confluency prior to transfection. Transient transfections were performed using Polyfect (Qiagen) according to manufacturer's instructions. Typically a transfection mix would consist of the receptor and the β-galactosidase expression vectors. Sixteen hours post-transfection, cells were incubated with different doses of ligand in DMEM containing 30% Ultraculture (Hyclone) and 0.4% calf serum (Hyclone) to generate a dose response curve. […] Plates were read using a microplate reader at 420 nm. Data from R-SAT® assays were fit to the equation: r=A+B(x/(x+c)), where A=minimum response, B=maximum response minus minimum response, c=EC50, r=response, and x=concentration of ligand. Curves were generated using the curve fitting softwares Excel Fit and GraphPad Prism (San Diego, Calif.). Luciferase Reporter Gene Assay

ERα [6] = target: T1, ERα; assay: Luciferase reporter gene assay (3*ERE) in HEK293 cells, ERα; assay type: cell-based; set-up: expressed in transfected cells; host or cells: transient transfection; conditions: 48 hours; for EC50: na = not active, read-out: Luciferase Erα pEC50 (converted)
Method: (§4) HEK293 cells were grown to 70% confluency in DMEM containing 10% calf serum (Hyclone) prior to transfection. On the day of transfection (day 1), expression vectors for ERα or ERβ were cotransfected along a construct containing a synthetic 3*ERE upstream of the luciferase gene (Panomics), using Polyfect (Qiagen) per manufacturer's recommendations (ERE being estrogen response element). Sixteen hours post-transfection, cells were incubated in serum free DMEM. […] Cells extracts were then obtained by lyzing and the Luciferase activity measured, all of these steps performed using a commercially available kit (Promega).

ERβ [7] = target: T2, ERβ; assay: R-SAT functional assay, ERβ; assay type: cell-based; set-up: expressed in transfected cells; host or cells: transient transfection; remark: listed apart in the source
ERβ [8] = target: T2, ERβ; assay: Luciferase reporter gene assay (3*ERE) in HEK293 cells, ERβ; assay type: cell-based; set-up: expressed in transfected cells; host or cells: HEK293 cells, transient transfection; conditions: for Emax: read-out: Luciferase Erβ % Eff
Method: as §4

ERβ [9] = target: T2, ERβ; assay: Competitive 3H-estradiol binding assay, ERβ; set-up: expressed in transfected cells; host or cells: HEK293 cells, transient transfection
Method: as §1, with “Cells” for “HEK293T cells were transiently transfected for 48 hours with expression vectors encoding ERα or ERβ, before being serum starved for 4-6 hours. Cells”

ERα [10] = target: T1, ERα; assay: R-SAT functional assay, ERα; assay type: cell-based; set-up: expressed in transfected cells; host or cells: NIH-3T3 fibroblasts, transient transfection; conditions: NIH-3T3 cells; for EC50: na = not active, read-out: R-SAT Erα pEC50 (converted)
Excerpt: as §3

Taxol-induced allodynia = assay: Taxol-induced neuropathy model; assay type: in vivo, male SD rats; conditions: for effect on Taxol-induced allodynia: s.c. (gabapentin i.p.), Compound 8 at 10 and 30 mg/kg, 2 hours post-dose
Method: Neuropathy was induced in male SD rats by 4×1 mg/kg consecutive daily doses of taxol as described (Naguib M, Diaz P, Xu J J, Astruc-Diaz F, Craig S, Vivas-Mejia P, Brown D L. MDA7: a novel selective agonist for CB2 receptors that prevents allodynia in rat neuropathic pain models. Br J. Pharmacol. 2008 December; 155(7):1104-16). The presence of tactile allodynia (von Frey filament 50% response threshold of <5 g) was confirmed prior to inclusion in the study. Drugs were administered sub-cutaneously (s.c.) except gabapentin was given intra-peritoneally (i.p.). Doses are given in mg/kg. * p<0.05.
Allodynia was assessed by applying a light tactile stimulus (Von Frey hairs) to the plantar surface of the surgical paw until the 50% threshold was established. A positive response was recorded if the paw was sharply withdrawn. Eight VonFrey hairs were used (3.61, 3.84, 4.08, 4.31, 4.56, 4.74, 4.93 and 5.18). MPE (%) was calculated as [(Rdrug−Rveh)/(Rsham−Rveh)]*100% where Rveh was 4 and Rsham was 13. Repeat dosing (FIG. 10C) was performed by administering the indicated doses of Compound 8 once daily via the s.c. route. Efficacy was measured 2 hours post-dose.

[11] = Unidirectional permeability across MatTek EpiOral buccal tissue; assay type: in vitro ADME, human; conditions: test compound 10 μM co-dosed with controls atenolol and caffeine 100 μM, DPBS pH 7.4, 37° C.
Method: EpiOral→tissues plated in 24-well plates were obtained from MatTek Corporation (Ashland, Mass., USA). The assay buffer was Dulbeccos' Phosphate Buffered Saline (DPBS) without Ca & Mg chloride, pH 7.4. Each test compound was co-dosed with the two control compounds. Targeting dosing concentrations were 10 μM for each test compound and 100 μM for the two control compounds. Prior to the permeability assay onset, the tissues were preequilibrated in a pre-warmed EpiOral assay medium for one hour at 37° C. in a 5% CO2 incubator. The EpiOral assay medium was aspirated after the pre-equilibration, and the tissues were washed twice with the DPBS buffer. The receiver chambers were filled with 0.75 mL of the DPBS buffer, while the donor chambers received 0.4 mL of the dosing solutions. The assay plates were placed at 37° C. in a 5% CO2 incubator. The receiver samples (200 μL) were collected at 30, 60, and 120 minutes, and replaced with an equal volume of fresh pre-warmed receiver buffer (except for the last time point of 120 minutes). The donor sides were sampled at 0 and 120 minutes. The test compounds were then analyzed using LC-MS/MS.

[12] = NIH3T3, read-out: R-SAT Erβ % Eff
[13] = NIH3T3, NIH-3T3 cells, read-out: R-SAT Erβ % Eff

## COc1ccc(C2(c3ccccc3F)CCC(F)(F)CC2)cc1 [Compound 9, 1-(4,4-Difluoro-1-(4-methoxyphenyl)cyclohexyl)-2-fluorobenzene]
[1]
  Microsomal bioavailability (predicted from microsomes): 19.6%

## Oc1ccc(C2(c3ccccc3F)CCC(F)(F)CC2)cc1F [Compound 10, 4-(4,4-Difluoro-1-(2-fluorophenyl)cyclohexyl)-2-fluorophenol]
ERα [2]
  Ki: 251 nM
[3]
  microsomal CLint: 11 µL/min/mg
[4]
  microsomal CLint: 95 µL/min/mg
ERβ [5]; [12]
  Emax: 57%
ERα [6]
  Luciferase Erα % Eff: 2%
ERβ [7]
  EC50: 2.51 nM
ERβ [8]
  EC50: 2 nM
ERβ [8]; HEK293, 48 h
  Emax: 55%
ERβ [9]
  Ki: 5.01 nM
ERα [10]
  R-SAT Erα % Eff: 100%
  EC50: 1000 nM

## Oc1ccc(C2(c3ccccc3Cl)CCC(F)(F)CC2)cc1 [Compound 12]
ERα [2]
  Ki: 100 nM
[4]
  microsomal CLint: 147 µL/min/mg
ERβ [5]; [13]
  Emax: 42%
ERα [6]
  Luciferase Erα % Eff: 30%
ERβ [7]
  EC50: 3.16 nM
ERβ [8]
  EC50: 0.631 nM
ERβ [8]; HEK293 cells, 48 hours
  Emax: 74%
ERβ [9]
  Ki: 3.98 nM
ERα [10]
  R-SAT Erα % Eff: 74%

## Oc1ccc(C2(c3ccccc3Cl)CCC(F)(F)CC2)cc1F [Compound 14]
ERα [2]
  Ki: 50.1 nM
[4]
  microsomal CLint: 113 µL/min/mg
ERβ [5]; [12]
  Emax: 60%
ERα [6]
  Luciferase Erα % Eff: 82%
ERβ [7]
  EC50: 1.58 nM
ERβ [8]
  EC50: 0.631 nM
ERβ [8]; HEK293, 48 h
  Emax: 52%
ERβ [9]
  Ki: 3.98 nM
ERα [10]
  R-SAT Erα % Eff: 145%
  EC50: 100 nM

## Oc1ccc(C2(c3ccccc3F)CCCCC2)cc1 [Compound 152]
[3]
  microsomal CLint: 27 µL/min/mg
[4]
  microsomal CLint: 405 µL/min/mg
ERβ [5]; [13]
  Emax: 69%
ERα [6]
  Luciferase Erα % Eff: 48%
  EC50: 3980 nM
ERβ [7]
  EC50: 12.6 nM
ERβ [8]
  EC50: 20 nM
ERβ [8]; HEK293 cells, 48 hours
  Emax: 126%
ERβ [9]
  Ki: 63.1 nM
ERα [10]
  R-SAT Erα % Eff: 29%
  EC50: 1580 nM

## Oc1ccc(C2(c3ccccc3Cl)CCCCC2)cc1 [Compound 558]
ERα [2]
  Ki: 1000 nM
[1]
  Microsomal bioavailability (predicted from microsomes): 2%
ERβ [5]; [13]
  Emax: 73%
ERα [6]
  Luciferase Erα % Eff: 37%
  EC50: 1580 nM
ERβ [7]
  EC50: 6.31 nM
ERβ [8]
  EC50: 2.51 nM
ERβ [8]; HEK293 cells, 48 hours
  Emax: 101%
ERβ [9]
  Ki: 50.1 nM
ERα [10]
  R-SAT Erα % Eff: 48%
  EC50: 1260 nM

## N#CC(Cc1ccc(O)cc1)c1ccc(O)cc1 (stereo not drawn) [DPN]
Taxol-induced allodynia
  effect on Taxol-induced allodynia: active

## Cn1c(=O)c2c(ncn2C)n(C)c1=O [caffeine]
[11]
  apparent permeability coefficient (Papp) across MatTek EpiOral buccal tissues: 27.5 ×10⁻⁶ cm/s and 22.3 ×10⁻⁶ cm/s

## NCC1(CC(=O)O)CCCCC1 [gabapentin]
Taxol-induced allodynia; gabapentin i.p.
  maximum effect (MPE): 39%
Taxol-induced allodynia
  effect on Taxol-induced allodynia: relatively ineffective
